Reference: the NIST ThermoML archive (doi:10.1021/acs.jced.8b00153)
Values joined by “and” are separate entries in the source; they are usually repeats but may differ in a detail not shown here. Identical values can stand only once.

Conditions: for speed of sound / mass density / viscosity / vapor or sublimation pressure: Liquid; for speed of sound: Frequency=3 MHz, Single path-length method; for mass density: Vibrating tube method; for surface tension liquid-gas: Drop volume; for viscosity: Capillary tube (Ostwald / Ubbelohde) method; for vapor or sublimation pressure: Ebulliometric method (Recirculating still)

CCc1ccco1 [2-ethylfuran]
Conditions	mass density	speed of sound [m/s]	viscosity [mPa·s]
313.15 K, 100 kPa	882.52 kg/m3 and 882.49 kg/m3	1129.2	–
313.15 K, 2000 kPa	884.62 kg/m3	–	–
313.15 K, 5000 kPa	887.63 kg/m3	–	–
313.15 K, 7000 kPa	889.75 kg/m3	–	–
313.15 K, 10000 kPa	892.61 kg/m3	–	–
313.15 K, 15000 kPa	897.4 kg/m3	–	–
313.15 K, 20000 kPa	901.8 kg/m3	–	–
313.15 K, 25000 kPa	906.18 kg/m3	–	–
313.15 K, 30000 kPa	910.18 kg/m3	–	–
313.15 K, 35000 kPa	914.06 kg/m3	–	–
313.15 K, 40000 kPa	917.85 kg/m3	–	–
313.15 K, 45000 kPa	921.58 kg/m3	–	–
313.15 K, 50000 kPa	925.04 kg/m3	–	–
313.15 K, 55000 kPa	928.5 kg/m3	–	–
313.15 K, 60000 kPa	931.93 kg/m3	–	–
313.15 K, 65000 kPa	935.06 kg/m3	–	–
315.65 K, 100 kPa	879.73 kg/m3	1118.1	0.4049
318.15 K, 100 kPa	876.92 kg/m3 and 876.88 kg/m3	1107.4	0.3962
318.15 K, 2000 kPa	879.13 kg/m3	–	–
318.15 K, 5000 kPa	882.2 kg/m3	–	–
318.15 K, 7000 kPa	884.37 kg/m3	–	–
318.15 K, 10000 kPa	887.44 kg/m3	–	–
318.15 K, 15000 kPa	892.29 kg/m3	–	–
318.15 K, 20000 kPa	896.91 kg/m3	–	–
318.15 K, 25000 kPa	901.27 kg/m3	–	–
318.15 K, 30000 kPa	905.42 kg/m3	–	–
318.15 K, 35000 kPa	909.5 kg/m3	–	–
318.15 K, 40000 kPa	913.4 kg/m3	–	–
318.15 K, 45000 kPa	917.1 kg/m3	–	–
318.15 K, 50000 kPa	920.67 kg/m3	–	–
318.15 K, 55000 kPa	924.18 kg/m3	–	–
318.15 K, 60000 kPa	927.71 kg/m3	–	–
318.15 K, 65000 kPa	930.91 kg/m3	–	–
320.65 K, 100 kPa	874.11 kg/m3	1096.5	0.3885
323.15 K, 100 kPa	871.29 kg/m3 and 871.23 kg/m3	1085.6	0.3794
323.15 K, 2000 kPa	873.56 kg/m3	–	–
323.15 K, 5000 kPa	876.77 kg/m3	–	–
323.15 K, 7000 kPa	878.96 kg/m3	–	–
323.15 K, 10000 kPa	882.17 kg/m3	–	–
323.15 K, 15000 kPa	887.15 kg/m3	–	–
323.15 K, 20000 kPa	891.93 kg/m3	–	–
323.15 K, 25000 kPa	896.47 kg/m3	–	–
323.15 K, 30000 kPa	900.65 kg/m3	–	–
323.15 K, 35000 kPa	904.8 kg/m3	–	–
323.15 K, 40000 kPa	908.8 kg/m3	–	–
323.15 K, 45000 kPa	912.67 kg/m3	–	–
323.15 K, 50000 kPa	916.35 kg/m3	–	–
323.15 K, 55000 kPa	919.97 kg/m3	–	–
323.15 K, 60000 kPa	923.48 kg/m3	–	–
323.15 K, 65000 kPa	926.81 kg/m3	–	–
325.65 K, 100 kPa	868.46 kg/m3	1074.8	0.3706
328.15 K, 100 kPa	865.62 kg/m3 and 865.59 kg/m3	1063.8	0.3619
328.15 K, 2000 kPa	867.92 kg/m3	–	–
328.15 K, 5000 kPa	871.27 kg/m3	–	–
328.15 K, 7000 kPa	873.57 kg/m3	–	–
328.15 K, 10000 kPa	876.84 kg/m3	–	–
328.15 K, 15000 kPa	882.03 kg/m3	–	–
328.15 K, 20000 kPa	886.97 kg/m3	–	–
328.15 K, 25000 kPa	891.57 kg/m3	–	–
328.15 K, 30000 kPa	895.96 kg/m3	–	–
328.15 K, 35000 kPa	900.23 kg/m3	–	–
328.15 K, 40000 kPa	904.35 kg/m3	–	–
328.15 K, 45000 kPa	908.24 kg/m3	–	–
328.15 K, 50000 kPa	912.04 kg/m3	–	–
328.15 K, 55000 kPa	915.63 kg/m3	–	–
328.15 K, 60000 kPa	919.32 kg/m3	–	–
328.15 K, 65000 kPa	922.64 kg/m3	–	–
330.65 K, 100 kPa	862.76 kg/m3	1053.7	0.3536
333.15 K, 100 kPa	859.9 kg/m3 and 859.9 kg/m3	1042.2	0.3455
333.15 K, 2000 kPa	862.3 kg/m3	–	–
333.15 K, 5000 kPa	865.81 kg/m3	–	–
333.15 K, 7000 kPa	868.2 kg/m3	–	–
333.15 K, 10000 kPa	871.58 kg/m3	–	–
333.15 K, 15000 kPa	876.87 kg/m3	–	–
333.15 K, 20000 kPa	881.93 kg/m3	–	–
333.15 K, 25000 kPa	886.74 kg/m3	–	–
333.15 K, 30000 kPa	891.26 kg/m3	–	–
333.15 K, 35000 kPa	895.59 kg/m3	–	–
333.15 K, 40000 kPa	899.79 kg/m3	–	–
333.15 K, 45000 kPa	903.78 kg/m3	–	–
333.15 K, 50000 kPa	907.66 kg/m3	–	–
333.15 K, 55000 kPa	911.34 kg/m3	–	–
333.15 K, 60000 kPa	915.07 kg/m3	–	–
333.15 K, 65000 kPa	918.6 kg/m3	–	–
335.65 K, 100 kPa	857.02 kg/m3	1032.1	0.3372
338.15 K, 100 kPa	854.13 kg/m3 and 854.07 kg/m3	1020.5	0.33
338.15 K, 2000 kPa	856.63 kg/m3	–	–
338.15 K, 5000 kPa	860.21 kg/m3	–	–
338.15 K, 7000 kPa	862.69 kg/m3	–	–
338.15 K, 10000 kPa	866.19 kg/m3	–	–
338.15 K, 15000 kPa	871.73 kg/m3	–	–
338.15 K, 20000 kPa	876.98 kg/m3	–	–
338.15 K, 25000 kPa	881.86 kg/m3	–	–
338.15 K, 30000 kPa	886.43 kg/m3	–	–
338.15 K, 35000 kPa	890.92 kg/m3	–	–
338.15 K, 40000 kPa	895.2 kg/m3	–	–
338.15 K, 45000 kPa	899.36 kg/m3	–	–
338.15 K, 50000 kPa	903.34 kg/m3	–	–
338.15 K, 55000 kPa	907.07 kg/m3	–	–
338.15 K, 60000 kPa	910.92 kg/m3	–	–
338.15 K, 65000 kPa	914.41 kg/m3	–	–

Conditions	surface tension liquid-gas [mN/m]	vapor or sublimation pressure [kPa]
315.65 K	22.66	–
317.62 K	–	18.64
318.15 K	22.3	–
320.45 K	–	20.98
320.65 K	22.07	–
322.48 K	–	22.8
323.15 K	21.77	–
324.89 K	–	25.18
325.65 K	21.4	–
327.06 K	–	27.46
328.15 K	21.08	–
329.8 K	–	30.6
330.65 K	20.87	–
331.39 K	–	32.49
333.15 K	20.5	–
333.19 K	–	34.85
334.73 K	–	36.94
335.65 K	20.28	–
336.84 K	–	39.92
338.15 K	19.95	–
338.83 K	–	42.91
340.3 K	–	45.25
342.6 K	–	49.13
344.85 K	–	53.18
347.05 K	–	57.4
348.94 K	–	61.22
350.71 K	–	64.98
352.9 K	–	69.89
354.83 K	–	74.51
356.8 K	–	79.34
358.65 K	–	84.17
360.61 K	–	89.59
361.79 K	–	92.94
362.46 K	–	94.88
363.67 K	–	98.45
364.18 K	–	100.08
364.61 K	–	101.33
